Where “and” joins values, the source holds several entries; their conditions need not be identical. Equal entries are not always repeated. ± gives the expanded uncertainty stated by the source.
Key:
[1] = for vapor or sublimation pressure: Closed cell (Static) method; for Normal melting temperature: DTA
[2] = Molar enthalpy of transition or fusion; conditions: Crystal; DSC

Oc1ccc(Br)cc1 [4-bromophenol]
vapor or sublimation pressure, [1]
Conditions	Crystal	Liquid
285.34 K	0.00035 ± 0.0001 kPa	–
287.33 K	0.00046 ± 0.0001 kPa	–
289.29 K	0.00057 ± 0.0001 kPa	–
291.33 K	0.00073 ± 0.0001 kPa	–
293.31 K	0.00092 ± 0.00011 kPa	–
295.29 K	0.00116 ± 0.00011 kPa	–
297.25 K	0.00146 ± 0.00012 kPa	–
299.23 K	0.00182 ± 0.00012 kPa	–
301.2 K	0.00229 ± 0.00014 kPa	–
303.18 K	0.00286 ± 0.00015 kPa	–
303.2 K	–	0.00555 ± 0.00024 kPa
305.19 K	0.00358 ± 0.00018 kPa	–
305.2 K	–	0.00661 ± 0.00028 kPa
307.17 K	0.00441 ± 0.0002 kPa	–
307.18 K	–	0.00784 ± 0.00032 kPa
309.12 K	0.00541 ± 0.00024 kPa and 0.0054 ± 0.00024 kPa	–
309.17 K	–	0.00932 ± 0.00038 kPa
311.05 K	0.00664 ± 0.00028 kPa	–
311.16 K	–	0.01099 ± 0.00044 kPa
313.09 K	0.00818 ± 0.00034 kPa	–
313.12 K	–	0.01288 ± 0.00051 kPa
315.08 K	0.01002 ± 0.00041 kPa	–
315.09 K	–	0.01516 ± 0.00055 kPa
316.89 K	–	0.01755 ± 0.00058 kPa
317.09 K	0.01219 ± 0.00049 kPa	–
318.6 K	–	0.02013 ± 0.00062 kPa
319.01 K	0.01482 ± 0.00054 kPa	–
320.72 K	–	0.02383 ± 0.00068 kPa
320.99 K	0.01805 ± 0.00059 kPa	–
323.03 K	0.02185 ± 0.00065 kPa	0.02842 ± 0.00075 kPa
324.98 K	0.02644 ± 0.00072 kPa	–
325.02 K	–	0.03304 ± 0.00082 kPa
326.97 K	0.03198 ± 0.00081 kPa	0.03827 ± 0.0009 kPa
328.93 K	0.03838 ± 0.00091 kPa	–
328.95 K	–	0.04429 ± 0.001 kPa
330.89 K	–	0.05121 ± 0.0011 kPa
330.93 K	0.0461 ± 0.001 kPa	–
332.9 K	–	0.05904 ± 0.0012 kPa
334.9 K	–	0.06804 ± 0.0014 kPa
336.81 K	–	0.07806 ± 0.0015 kPa
338.78 K	–	0.0882 ± 0.0017 kPa
340.82 K	–	0.1022 ± 0.0019 kPa
342.8 K	–	0.1163 ± 0.0021 kPa
344.73 K	–	0.132 ± 0.0021 kPa
346.82 K	–	0.1517 ± 0.0023 kPa
348.66 K	–	0.1712 ± 0.0025 kPa
350.78 K	–	0.1945 ± 0.0028 kPa
352.64 K	–	0.2188 ± 0.003 kPa
354.73 K	–	0.2475 ± 0.0033 kPa
356.58 K	–	0.2774 ± 0.0036 kPa
358.68 K	–	0.3129 ± 0.004 kPa
360.5 K	–	0.3497 ± 0.0044 kPa
362.61 K	–	0.3938 ± 0.0049 kPa
364.5 K	–	0.4391 ± 0.0054 kPa
366.58 K	–	0.4925 ± 0.0059 kPa
368.3 K	–	0.549 ± 0.0065 kPa
370.51 K	–	0.6102 ± 0.0072 kPa

Conditions	Molar enthalpy of transition or fusion [kcal/mol]
[2]	4.04 ± 0.0956

Oc1ccc(Cl)cc1 [4-chlorophenol]
vapor or sublimation pressure [kPa], [1]
Conditions	Crystal	Liquid
273.48 K	–	0.00084 ± 0.0001
273.5 K	0.00039 ± 0.0001	–
275.43 K	0.00049 ± 0.0001	–
275.44 K	–	0.00104 ± 0.0001
277.42 K	0.00063 ± 0.0001	0.00128 ± 0.00011
279.38 K	0.00081 ± 0.0001	0.00158 ± 0.00011
281.38 K	0.00103 ± 0.0001	0.00192 ± 0.00012
283.35 K	0.0013 ± 0.00011	–
283.37 K	–	0.00234 ± 0.00013
285.33 K	–	0.00286 ± 0.00015
285.35 K	0.00166 ± 0.00012	–
287.31 K	0.00208 ± 0.00013	–
287.32 K	–	0.00345 ± 0.00017
289.31 K	0.00262 ± 0.00014	0.00418 ± 0.00019
291.28 K	–	0.00507 ± 0.00022
291.31 K	0.00327 ± 0.00016	–
293.28 K	0.00406 ± 0.00019	0.00606 ± 0.00026
295.27 K	0.00505 ± 0.00022	–
295.32 K	–	0.00733 ± 0.0003
297.25 K	–	0.00872 ± 0.00036
297.26 K	0.00624 ± 0.00027	–
299.21 K	0.00766 ± 0.00032	–
299.23 K	–	0.01048 ± 0.00042
301.2 K	–	0.01241 ± 0.0005
301.23 K	0.00951 ± 0.00039	–
303.19 K	–	0.01472 ± 0.00054
303.2 K	0.01166 ± 0.00047	–
305.18 K	0.01436 ± 0.00054	0.01741 ± 0.00058
307.16 K	0.01755 ± 0.00058	–
307.18 K	–	0.02059 ± 0.00063
309.14 K	0.02132 ± 0.00064	0.02426 ± 0.00069
311.11 K	–	0.02854 ± 0.00075
311.14 K	0.02603 ± 0.00071	–
313.12 K	–	0.03332 ± 0.00083
315.06 K	–	0.03907 ± 0.00092
317.07 K	–	0.04539 ± 0.001
319.03 K	–	0.05279 ± 0.0011
321.14 K	–	0.06178 ± 0.0013
323.09 K	–	0.07108 ± 0.0014
325.09 K	–	0.08208 ± 0.0016
327.04 K	–	0.09417 ± 0.0018
329.04 K	–	0.1088 ± 0.002
331.02 K	–	0.1249 ± 0.0023

Conditions	Normal melting temperature [°C]
[1], Crystal	43.8 ± 0.4

Conditions	Molar enthalpy of transition or fusion [kcal/mol]
[2]	3.35 ± 0.0956

Oc1ccc(F)cc1 [4-fluorophenol]
vapor or sublimation pressure [kPa], [1]
Conditions	Crystal	Liquid
265.62 K	0.00084 ± 0.0001	–
267.58 K	0.00108 ± 0.0001	–
269.54 K	0.00137 ± 0.00011	–
271.5 K	0.00174 ± 0.00012	–
273.49 K	0.00222 ± 0.00013	–
275.43 K	0.00279 ± 0.00015	–
277.43 K	0.00353 ± 0.00017	–
279.39 K	0.00443 ± 0.0002	–
281.38 K	0.00555 ± 0.00024	–
283.36 K	0.00696 ± 0.00029	–
285.33 K	0.00863 ± 0.00035	–
287.34 K	0.01071 ± 0.00043	–
289.29 K	0.01329 ± 0.00052	–
291.3 K	0.01648 ± 0.00057	–
291.39 K	–	0.02895 ± 0.00076
293.29 K	0.02028 ± 0.00063	–
293.35 K	–	0.03339 ± 0.00083
295.26 K	0.02476 ± 0.00069	–
295.34 K	–	0.0394 ± 0.00092
297.24 K	0.03044 ± 0.00078	–
297.32 K	–	0.04637 ± 0.001
299.25 K	0.03741 ± 0.00089	0.05448 ± 0.0011
301.19 K	0.04503 ± 0.001	–
301.24 K	–	0.06387 ± 0.0013
303.21 K	0.05518 ± 0.0012	–
303.22 K	–	0.07471 ± 0.0015
305.19 K	0.06658 ± 0.0013	–
305.24 K	–	0.08751 ± 0.0017
307.18 K	0.08105 ± 0.0016	–
307.21 K	–	0.1019 ± 0.0019
309.16 K	0.09599 ± 0.0018	–
309.2 K	–	0.1187 ± 0.0022
311.12 K	0.1152 ± 0.0021	–
311.17 K	–	0.1369 ± 0.0022
313.11 K	0.1383 ± 0.0022	–
313.15 K	–	0.1588 ± 0.0024
315.06 K	–	0.1811 ± 0.0026
315.1 K	0.1647 ± 0.0025	–
317.01 K	–	0.2084 ± 0.0029
317.07 K	0.197 ± 0.0028	–
319.02 K	–	0.2365 ± 0.0032
321.01 K	–	0.2738 ± 0.0036
323.1 K	–	0.3152 ± 0.004
325.09 K	–	0.3611 ± 0.0045
327.06 K	–	0.4129 ± 0.0051
329.05 K	–	0.4644 ± 0.0056
331.02 K	–	0.5332 ± 0.0064
333.01 K	–	0.5995 ± 0.0071
335 K	–	0.6828 ± 0.008
336.96 K	–	0.7646 ± 0.0088
338.93 K	–	0.8651 ± 0.0099
340.78 K	–	0.9558 ± 0.011
342.84 K	–	1.084 ± 0.012

Conditions	Normal melting temperature [°C]
[1], Crystal	47.2 ± 0.4

Conditions	Molar enthalpy of transition or fusion [kcal/mol]
[2]	3.47 ± 0.0956

Oc1ccc(I)cc1 [4-iodophenol]
vapor or sublimation pressure [kPa], [1]
Conditions	Crystal	Liquid
307.15 K	0.00064 ± 0.00011	–
309.13 K	0.00079 ± 0.00011	–
311.09 K	0.00098 ± 0.00011	–
313.1 K	0.00123 ± 0.00012	–
315.1 K	0.00152 ± 0.00012	–
317.05 K	0.00189 ± 0.00013	–
319.1 K	0.00236 ± 0.00014	–
321.01 K	0.00288 ± 0.00016	–
323.01 K	0.00353 ± 0.00018	–
325.06 K	0.00436 ± 0.0002	–
326.95 K	0.00527 ± 0.00024	–
329.02 K	0.00647 ± 0.00028	–
330.91 K	0.00781 ± 0.00033	–
332.98 K	0.00956 ± 0.00039	–
334.88 K	0.01147 ± 0.00046	–
336.93 K	–	0.02432 ± 0.00069
336.95 K	0.01399 ± 0.00053	–
338.83 K	0.01662 ± 0.00057	–
338.84 K	–	0.02795 ± 0.00074
340.71 K	–	0.03222 ± 0.00081
340.9 K	0.02012 ± 0.00063	–
342.72 K	–	0.03713 ± 0.00089
342.79 K	0.02397 ± 0.00068	–
344.73 K	–	0.04253 ± 0.00097
344.86 K	0.02883 ± 0.00076	–
346.71 K	0.03411 ± 0.00084	–
346.73 K	–	0.04894 ± 0.0011
348.71 K	–	0.05593 ± 0.0012
348.82 K	0.04092 ± 0.00095	–
350.67 K	0.0482 ± 0.0011	–
350.69 K	–	0.06373 ± 0.0013
352.67 K	–	0.07262 ± 0.0014
352.76 K	0.05731 ± 0.0012	–
354.59 K	0.06713 ± 0.0014	–
354.62 K	–	0.08281 ± 0.0016
356.58 K	–	0.09387 ± 0.0018
356.72 K	0.07984 ± 0.0015	–
358.58 K	0.09351 ± 0.0018	0.1065 ± 0.002
360.56 K	–	0.1204 ± 0.0022
360.65 K	0.1108 ± 0.0021	–
362.52 K	–	0.1359 ± 0.0022
364.52 K	–	0.1533 ± 0.0024
366.46 K	–	0.1729 ± 0.0026
368.57 K	–	0.1961 ± 0.0028
370.44 K	–	0.2178 ± 0.003
372.51 K	–	0.2463 ± 0.0033
374.38 K	–	0.2725 ± 0.0036
376.46 K	–	0.3075 ± 0.004
378.32 K	–	0.3409 ± 0.0043
380.41 K	–	0.382 ± 0.0047

Conditions	Normal melting temperature [°C]
[1], Crystal	92.7 ± 0.4

Conditions	Molar enthalpy of transition or fusion [kcal/mol]
[2]	4.97 ± 0.12
